Literature values, collected in patent US20080241117A1, “Oral Care Compositions Containing a Mixed Tocopherol Component” (priority 2007, published 2008).
Where two headings read alike, the source gives them in different places.

Key:
[1] = applied topically in toothpaste
[2] = tested on: gingivitis; conditions: applied topically in toothpaste; primates
[3] = tested on: gingivitis; conditions: applied topically in toothpaste; humans
[4] = tested on: prostaglandin E2 in gingival crevicular fluid; conditions: applied topically in rinse form

Molecule	penetration of gum tissue [1]	effect on gingivitis [2]	effect on gingivitis [3]	level of prostaglandin E2 in gingival crevicular fluid [4]
Cc1c(C)c2c(c(C)c1O)CC[C@@](C)(CCC[C@H](C)CCC[C@H](C)CCCC(C)C)O2 [alpha tocopherol]	penetrates gum tissue	fails to provide an effect on gingivitis	fails to provide an effect on gingivitis	
tocopherol [vitamin E]				reduced level of prostaglandin E2
